The test system of data set [1] is HT-29. The data set can be described thus: Anti-necroptotic activity in TSZ-induced human HT-29 cells assessed as increase in cell viability preincubated with Z-VAD-FMK and SM164 for 30 mins followed by TNFalpha stimulation for 12 hrs and measured after compound addition by CellTiter-Lumi luminescent cell viability assay. The format is functional, cell-based.
For data set [2], the system named is L929. The data set can be described thus: Anti-necroptotic activity in TZ-induced mouse L929 cells assessed as rounded shape cell morphology at 10 uM measured after 12 hrs by Live-cell super-resolution panoramic microscopic analysis. The format is functional, cell-based.
A short description of data set [3]: Acute toxicity in male C57BL/6J mouse assessed as inflammatory cell infiltration in liver at 2 g/Kg, IG measured after 72 hrs by H and E staining based analysis. It counts as tissue-based. The note with it: in vivo, po, 2000 mg/kg.
The nature of data set [4]: Acute toxicity in male C57BL/6J mouse assessed as inflammatory cell infiltration in brain at 2 g/Kg, IG measured after 72 hrs by H and E staining based analysis. The note with it: in vivo, po, 2000 mg/kg. The format is tissue-based.
The nature of data set [5]: Acute toxicity in male C57BL/6J mouse assessed as structural changes in brain at 2 g/Kg, IG measured after 72 hrs by H and E staining based analysis. It counts as tissue-based. The note with it: in vivo, po, 2000 mg/kg.
In data set [6] the test system is HT-29. In words: Downregulation of RIPK3 protein level in human HT-29 cell supernatant at 6 uM measured after 9 hrs by Western blot analysis. It counts as functional, cell-based.
The test system of data set [7] is Mus musculus. The data set can be described thus: Anti-necroptotic activity in TNFalpha/Z-VAD-FMK induced SIRS male C57BL/6J mouse model assessed as reduction in IL6 in heart at 5 to 10 mg/kg, po pre-administered with compound via gavage for 2 hrs followed by […] of Z-VAD-FMK stimulation for 15 mins with subsequent TNF-alpha stimulation for 1 hrs and re-current […] of Z-VAD-FMK stimulation and measured after 8 hrs post SIRS induction by ELISA. The format is functional, organism-based. The note with it: dose 5-10 mg/kg, time 10.0 hrs.

For data set [8], the system named is HT-29. The data set can be described thus: Downregulation of RIPK3 protein level in human HT-29 cells at 6 uM preincubated with Z-VAD-FMK for 2 hrs followed by compound addition and measured after 9 hrs by Western blot analysis. The format is functional, cell-based.
In data set [9] the test system is HT-29. In words: Downregulation of RIPK3 protein level in human HT-29 cells at 6 uM preincubated with MLN4924 for 2 hrs followed by compound addition and measured after 9 hrs by Western blot analysis. The format is functional, cell-based.
Data set [10] deals with HT-29. In words: Downregulation of MLKL protein level in human HT-29 cells at 6 uM preincubated with NH4Cl for 2 hrs followed by compound addition and measured after 9 hrs by Western blot analysis. It counts as functional, cell-based.
The test system of data set [11] is HT-29. The data set can be described thus: Effect on MLKL protein level in human HT-29 cell precipitate at 6 uM measured after 9 hrs by Western blot analysis. The format is functional, cell-based.
Data set [12] concerns HeLa. The data set can be described thus: Inhibition of MLKL protein expression in RIPK3-deficient human HeLa cells at 6 uM preincubated with MG132 for 2 hrs followed by compound addition and measured after 9 hrs by Western blot analysis. It counts as functional, cell-based.
Data set [13] relates to HeLa. In words: Inhibition of RIPK1 protein expression in RIPK3-deficient human HeLa cells at 6 uM preincubated with MG132 for 2 hrs followed by compound addition and measured after 9 hrs by Western blot analysis. It counts as functional, cell-based.
Data set [14] relates to L929. The data set can be described thus: Anti-necroptotic activity in TZ-induced mouse L929 cells assessed as increase in cell survival at 10 uM measured after 12 hrs by Live-cell super-resolution panoramic microscopic analysis. The format is functional, cell-based.
The subject of data set [15] is HT-29. The data set can be described thus: Anti-necroptotic activity in TCZ-induced human HT-29 cells assessed as increase in cell viability at 1.25 uM preincubated with compound followed by Z-VAD-FMK, cycloheximide and TNFalpha addition and measured after 16 hrs by CellTiter-Lumi luminescent cell viability assay relative to control. The format is functional.
The target of data set [16] is Heat shock protein HSP 90-alpha (Homo sapiens, UniProt P07900). The data set can be described thus: Binding affinity to N-terminal 6His/SUMO-tagged recombinant human HS90AA1 assessed as dissociation constant incubated for 30 mins by MST analysis.
The nature of data set [17]: Acute toxicity in male C57BL/6J mouse assessed as hemorrhage in brain at 2 g/Kg, IG measured after 72 hrs by H and E staining based analysis. The format is tissue-based. The note with it: in vivo, po, 2000 mg/kg.
Data set [18] in a line: Acute toxicity in male C57BL/6J mouse assessed as hemorrhage in intestine at 2 g/Kg, IG measured after 72 hrs by H and E staining based analysis. The note with it: in vivo, po, 2000 mg/kg. It counts as tissue-based.
The nature of data set [19]: Acute toxicity in male C57BL/6J mouse assessed as hemorrhage in liver at 2 g/Kg, IG measured after 72 hrs by H and E staining based analysis. The format is tissue-based. The note with it: in vivo, po, 2000 mg/kg.
In data set [20] the test system is HT-29. The data set can be described thus: Downregulation of RIPK1 protein level in human HT-29 cells at 6 uM preincubated with MLN4924 for 2 hrs followed by compound addition and measured after 9 hrs by Western blot analysis. The format is functional, cell-based.
In data set [21] the test system is HT-29. In words: Anti-necroptotic activity in TSZ-induced human HT-29 cells assessed as increase in cell viability at 2.5 uM preincubated with compound followed by Z-VAD-FMK, SM164 and TNFalpha addition and measured after 12 hrs by CellTiter-Lumi luminescent cell viability assay relative to control. It counts as functional.

Active and inactive are the calls of the source. The rule behind the calls is not given here.

Take `Cn1ccc(-c2ccc(NC(=O)[C@]34CCC(C)(C)C[C@H]3[C@H]3C(=O)C=C5[C@@]6(C)C=C(C#N)C(=O)C(C)(C)[C@@H]6CC[C@@]5(C)[C@]3(C)CC4)cc2)n1`: the EC50 in data set [1] came to 1380 nM. In addition, the outcome in [2], in [6], in [7], in [8], in data set [9] and in data set [10] was Active. Besides, the result in data set [14] and in data set [20] was Active. Also, the Activity entry was “Non-toxic” in [3]; “Non-toxic” in data set [4]; “Non-toxic” in data set [5]; 100% in data set [15]; “Non-toxic” in data set [17]; “Non-toxic” in [18]. Further, the Activity result is listed as “Non-toxic” in data set [19] and 100% in data set [21]. For the same molecule, the outcome in data set [11] was inactive. Further, the inhibition entry in [12] and in data set [13] was “Active” each time. In addition, the Kd in data set [16] is 185 nM.

Values taken from ChEMBL document CHEMBL6177981, “Bardoxolone Derivatives as Novel Pseudo-Natural Necroptosis Inhibitors by Destabilizing HSP90 Client Proteins” (J Med Chem, 2025).
